Values of other authors, collected in publication PMC3848067 (Acta Naturae, 2013).
Read-outs that look alike come from different tables or passages of the source.

Columns and labels:
[1] = parameters: method as in PMID 20380483; settings: after oral administration of the named drug; cited from earlier work
[2] = dogs, value for the tested compound (2 or its metabolite AZT), cited from earlier work
[3] = dogs, cited from earlier work; for tmax of AZT: oral phosphonate 2 capsules 600 mg daily
[4] = metabolite AZT after oral phosphonate 2, 20 mg/kg, rats; cited from earlier work
[5] = rabbits, single oral dose of the named compound equivalent to 200 mg of AZT/kg; cited from earlier work
[6] = cited from earlier work
IIIB strain of HIV = IIIB strain of HIV in blood mononuclear cells; cited from earlier work
HXB2 strain of HIV = HXB2 strain of HIV in blood mononuclear cells; cited from earlier work
HIV-1 [7] = settings: MT-4 cell culture; cited from earlier work
HIV = settings: cited from earlier work
[8] = canine whole blood at 37°С; cited from earlier work
HIV-1 [9] = settings: cell cultures C8 and JM; cited from earlier work
HIV infection = settings: cited from earlier work
MT-4 cells = settings: MT-4 cell culture; cited from earlier work
mice = settings: intraperitoneal administration to mice; cited from earlier work
HIV-1 [10] = settings: MT-4, CEM-SS and CEM-X174 cell lines; cited from earlier work
[11] = cited from earlier work; remark: listed apart in the source
[12] = single oral dose of capsules of 2, 10 mg/kg
[13] = single oral dose of capsules of 2, 20 mg/kg
[14] = single oral dose of capsules of 2, 40 mg/kg
[15] = compound 2 orally 600 mg for 7 days, 24 h intervals, day 7

Cc1cn([C@H]2C[C@H](N=[N+]=[N-])[C@@H](CO)O2)c(=O)[nH]c1=O [AZT, 3’-azido-3’-deoxythymidine]
Cmax of AZT [1]: ~1200 ng/mL
tmax of AZT [1]: 0.5 to 0.8 h
Cmax [2, 12]: 360 ± 240 ng/mL
Cmax/AUC [2, 12]: 0.119 ± 0.033 h⁻¹
MRT [2, 12]: 8.90 ± 5.34 h
t1/2 [2, 12]: 4.57 ± 1.46 h
tmax [2, 12]: 4.7 ± 1.0 h
Cmax [2, 13]: 690 ± 490 ng/mL
Cmax/AUC [2, 13]: 0.107 ± 0.023 h⁻¹
MRT [2, 13]: 12.0 ± 2.6 h
t1/2 [2, 13]: 9.7 ± 4.3 h
tmax [2, 13]: 5.0 ± 1.7 h
Cmax [2, 14]: 980 ± 560 ng/mL
Cmax/AUC [2, 14]: 0.100 ± 0.016 h⁻¹
MRT [2, 14]: 12.2 ± 1.4 h
t1/2 [2, 14]: 7.0 ± 2.5 h
tmax [2, 14]: 6.0 ± 1.3 h
С0 of AZT in plasma [3, 15]: 0.17 ± 0.07 mg/L
Сmin of AZT in plasma [3, 15]: 0.17 ± 0.07 mg/L
tmax of AZT ([3]; day 1): 2.7 h
tmax of AZT ([3]; day 7): 4 h
AUC 0-t [4]: 2270 ng·h/mL
MRT [4]: 6.54 h
tmax [4]: 4 h
Сmax [4]: 0.4 mg/L
AUC of AZT [5]: 88500 ± 25500 ng·h/mL
Cmax of AZT [5]: 39640 ± 4240 ng/mL
MRT of AZT [5]: 2.10 ± 0.30 h
t1/2 of AZT [5]: 2.13 ± 0.71 h
tmax of AZT [5]: 1.0 h
half-life period (blood plasma) ([6]; AZT concentration after oral administration of phosphonate 2): 3.9 h
detection of AZT in organs and tissues (liver, kidneys, spleen, lungs, skeletal muscles, mesentery) ([6]; metabolite of phosphonate 2): detected in all these organs and tissues

Cc1cn(C2CC(N=[N+]=[N-])C(CO[PH](=O)[O-])O2)c(=O)[nH]c1=O.[Na+] (centres unmarked) [Compound 1, sodium salt of AZT 5’-H-phosphonate]
selectivity index, times higher than that of AZT (IIIB strain of HIV): 1.5 times
selectivity index, times higher than that of AZT (HXB2 strain of HIV): 15 times
anti-HIV activity (HIV-1 [7]): moderate
selectivity index compared to AZT (HIV-1 [7]): higher than that of AZT
penetration of AZT through the placenta (HIV; AZT from phosphazide): capable of efficiently penetrating the placenta
effect on course of pregnancy, fetal maturity or viability (HIV; HIV-infected women): does not affect
prevention of vertical transmission of HIV (HIV; during pregnancy, combined with Retrovir or Nevirapine during childbirth and postnatal period): efficiently prevents vertical transmission of HIV
Т1/2 in canine whole blood [8]: 3 h
anti-HIV activity, times higher vs. that of AZT (HIV-1 [9]): 10–20 times
therapeutic efficacy (HIV infection; HIV-infected patients receiving HAART): significant therapeutic efficacy
tolerability (HIV infection; adults and children): well tolerated in both adults and children
therapeutic effect (reduction of viral stress, immunorestoration, decrease in risk of concomitant diseases) (HIV infection; clinical practice): stable positive therapeutic effect
adverse effects typically observed with AZT (vomiting, nausea, headache, diarrhea, myalgia, anemia, thrombocytopenia, neutrocytopenia) (HIV infection; during phosphazide therapy): No adverse effects
safety in patients with opportunistic infections (HIV infection; patients with tuberculosis and liver pathologies of viral etiology): safe for patients with tuberculosis and liver pathologies of viral etiology
toxicity as compared to AZT (MT-4 cells): lower
mean lethal dose (LD50) (mice): 2300 mg/kg
activity compared to AZT (HIV-1 [10]): lower than that of AZT by almost an order of magnitude
half-life in 100% human blood serum [11]: over 6 h
